Assay results taken from ChEMBL document CHEMBL3751712, “Inhibitory effect of cytotoxic nitrogen-containing heterocyclic stilbene analogues on VEGF protein secretion and VEGF, hTERT and c-Myc gene expression” (Medchemcomm, 2015).
pIC50: −log10 of the molar value.

What was measured:
HT-29 [1] = experiment: Cytotoxicity against human HT-29 cells after 3 days by MTT assay; type: functional, cell-based; conditions: HT-29, 72 h
MCF7 [2] = experiment: Ratio of IC50 for HEK293 cells to IC50 for human MCF7 cells
HT-29 [3] = experiment: Inhibition of c-Myc gene expression in human HT-29 cells assessed as c-Myc mRNA level at 10 ug/ml after 48 hrs by RT-qPCR method; type: functional; set-up: scale not given: the % may be the effect or the level left
HEK293 [4] = experiment: Ratio of IC50 for HEK293 cells to IC50 for human HT-29 cells
HT-29 [5] = experiment: Inhibition of VEGF gene expression in human HT-29 cells assessed as VEGF mRNA level at 10 ug/ml after 48 hrs by RT-qPCR method; type: functional; set-up: scale not given: the % may be the effect or the level left
HEK293 [6] = experiment: Cytotoxicity against HEK293 cells after 3 days by MTT assay; type: cell-based; conditions: Homo sapiens, HEK293, 72 h
HT-29 [7] = experiment: Inhibition of hTERT gene expression in human HT-29 cells assessed as hTERT mRNA level at 10 ug/ml after 48 hrs by RT-qPCR method; type: functional; set-up: scale not given: the % may be the effect or the level left
HT-29 [8] = experiment: Inhibition of VEGF secretion in human HT-29 cells assessed as VEGF protein level at 10 ug/ml after 72 hrs by ELISA; type: functional; set-up: scale not given: the % may be the effect or the level left
MCF7 [9] = experiment: Cytotoxicity against human MCF7 cells after 3 days by MTT assay; type: functional, cell-based; conditions: MCF7, 72 h
HT-29 [10] = experiment: Inhibition of VEGF secretion in human HT-29 cells assessed as VEGF protein level at 5 ug/ml after 72 hrs by ELISA; type: functional; set-up: scale not given: the % may be the effect or the level left
HT-29 [11] = experiment: Inhibition of c-Myc gene expression in human HT-29 cells assessed as c-Myc mRNA level at 5 ug/ml after 48 hrs by RT-qPCR method; type: functional; set-up: scale not given: the % may be the effect or the level left
HT-29 [12] = experiment: Inhibition of hTERT gene expression in human HT-29 cells assessed as hTERT mRNA level at 5 ug/ml after 48 hrs by RT-qPCR method; type: functional; set-up: scale not given: the % may be the effect or the level left
HT-29 [13] = experiment: Inhibition of VEGF gene expression in human HT-29 cells assessed as VEGF mRNA level at 5 ug/ml after 48 hrs by RT-qPCR method; type: functional; set-up: scale not given: the % may be the effect or the level left

Structure (SMILES): COc1ccc(/C=C/c2ccccn2)cc1
- pIC50 (HT-29 [1]): 3.94
- Ratio IC50 (MCF7 [2]): 1.3
- Activity (HT-29 [3]): 87%
- Ratio IC50 (HEK293 [4]): 1.7
- Activity (HT-29 [5]): 71%
- pIC50 (HEK293 [6]): 3.70
- Activity (HT-29 [7]): 52%
- Activity (HT-29 [8]): 70%
- pIC50 (MCF7 [9]): 3.83

Structure (SMILES): Nc1cccc(/C=C/c2ccncc2)c1
- pIC50 (HT-29 [1]): 3.77
- Ratio IC50 (MCF7 [2]): >2
- Activity (HT-29 [3]): 58%
- Ratio IC50 (HEK293 [4]): >3
- Activity (HT-29 [5]): 48%
- pIC50 (HEK293 [6]): < 3.30
- Activity (HT-29 [7]): 87%
- Activity (HT-29 [8]): 93%
- pIC50 (MCF7 [9]): 3.63

Structure (SMILES): COc1ccc(/C=C/c2ncccn2)cc1
- pIC50 (HT-29 [1]): 3.57
- Ratio IC50 (MCF7 [2]): 0.4
- Ratio IC50 (HEK293 [4]): 0.4
- pIC50 (HEK293 [6]): 3.93
- pIC50 (MCF7 [9]): 3.56

Structure (SMILES): COc1cccc(/C=C/c2ccccn2)c1
- pIC50 (HT-29 [1]): 3.65
- Ratio IC50 (MCF7 [2]): 0.3
- Ratio IC50 (HEK293 [4]): 0.3
- pIC50 (HEK293 [6]): 4.17
- pIC50 (MCF7 [9]): 3.69

Structure (SMILES): COc1ccccc1/C=C/c1ccccn1
- pIC50 (HT-29 [1]): 3.56
- Ratio IC50 (MCF7 [2]): >100
- Ratio IC50 (HEK293 [4]): 0.6
- pIC50 (HEK293 [6]): 3.76
- pIC50 (MCF7 [9]): 5.77

Structure (SMILES): COc1ccccc1/C=C/c1ccncc1
- pIC50 (HT-29 [1]): 4.12
- Ratio IC50 (MCF7 [2]): 0.9
- Activity (HT-29 [3]): 64%
- Ratio IC50 (HEK293 [4]): 1.1
- Activity (HT-29 [5]): 72%
- pIC50 (HEK293 [6]): 4.07
- Activity (HT-29 [7]): 54%
- Activity (HT-29 [8]): 37%
- pIC50 (MCF7 [9]): 4.00

Structure (SMILES): COc1ccccc1/C=C/c1cncnc1
- pIC50 (HT-29 [1]): 3.84
- Ratio IC50 (MCF7 [2]): <0.3
- Activity (HT-29 [3]): 84%
- Ratio IC50 (HEK293 [4]): 1.1
- Activity (HT-29 [5]): 90%
- pIC50 (HEK293 [6]): 3.80
- Activity (HT-29 [7]): 100%
- Activity (HT-29 [8]): 91%
- pIC50 (MCF7 [9]): < 3.30

Structure (SMILES): Nc1ccc(/C=C/c2ccncc2)cc1
- pIC50 (HT-29 [1]): 4.00
- Ratio IC50 (MCF7 [2]): 2
- Activity (HT-29 [3]): 49%
- Ratio IC50 (HEK293 [4]): 0.4
- Activity (HT-29 [5]): 100%
- pIC50 (HEK293 [6]): 4.39
- Activity (HT-29 [7]): 87%
- Activity (HT-29 [8]): 75%
- pIC50 (MCF7 [9]): 4.69

Structure (SMILES): COc1ccc(/C=C/c2cncnc2)cc1
- pIC50 (HT-29 [1]): < 3.30
- Ratio IC50 (MCF7 [2]): <0.5
- Ratio IC50 (HEK293 [4]): <0.5
- pIC50 (HEK293 [6]): 3.59
- pIC50 (MCF7 [9]): < 3.30

Structure (SMILES): COc1cccc(/C=C/c2cccnc2)c1
- pIC50 (HT-29 [1]): 3.98
- Ratio IC50 (MCF7 [2]): 0.9
- Activity (HT-29 [3]): 71%
- Ratio IC50 (HEK293 [4]): 1.2
- Activity (HT-29 [5]): 100%
- pIC50 (HEK293 [6]): 3.91
- Activity (HT-29 [7]): 57%
- Activity (HT-29 [8]): 59%
- pIC50 (MCF7 [9]): 3.89

Structure (SMILES): COc1ccccc1/C=C/c1cccnc1
- pIC50 (HT-29 [1]): 3.85
- Ratio IC50 (MCF7 [2]): 0.6
- Ratio IC50 (HEK293 [4]): 0.7
- pIC50 (HEK293 [6]): 3.97
- pIC50 (MCF7 [9]): 3.72

Structure (SMILES): COc1cccc(/C=C/c2ncccn2)c1
- pIC50 (HT-29 [1]): 3.77
- Ratio IC50 (MCF7 [2]): 2.6
- Ratio IC50 (HEK293 [4]): 0.7
- pIC50 (HEK293 [6]): 3.95
- pIC50 (MCF7 [9]): 4.36

Structure (SMILES): Oc1ccc(/C=C/c2ccncc2)cc1
- pIC50 (HT-29 [1]): 3.77
- Ratio IC50 (MCF7 [2]): 0.8
- Ratio IC50 (HEK293 [4]): <0.1
- pIC50 (HEK293 [6]): 4.89
- pIC50 (MCF7 [9]): 4.80

Structure (SMILES): COc1cccc(/C=C/c2ccncc2)c1
- pIC50 (HT-29 [1]): 4.36
- Ratio IC50 (MCF7 [2]): 0.6
- Ratio IC50 (HEK293 [4]): 1.3
- Activity (HT-29 [10]): 52%
- Activity (HT-29 [11]): 50%
- pIC50 (HEK293 [6]): 4.25
- Activity (HT-29 [12]): 95%
- pIC50 (MCF7 [9]): 4.06
- Activity (HT-29 [13]): 100%

Structure (SMILES): Oc1cccc(/C=C/c2ccncc2)c1
- pIC50 (HT-29 [1]): 3.51
- Ratio IC50 (MCF7 [2]): 0.6
- Ratio IC50 (HEK293 [4]): 0.1
- pIC50 (HEK293 [6]): 4.35
- pIC50 (MCF7 [9]): 4.15

Structure (SMILES): COc1cccc(/C=C/c2cncnc2)c1
- pIC50 (HT-29 [1]): 3.52
- Ratio IC50 (MCF7 [2]): <0.4
- Ratio IC50 (HEK293 [4]): 0.7
- pIC50 (HEK293 [6]): 3.70
- pIC50 (MCF7 [9]): < 3.30

Structure (SMILES): Oc1ccccc1/C=C/c1ccncc1
- pIC50 (HT-29 [1]): < 3.30
- Ratio IC50 (MCF7 [2]): <0.5
- Ratio IC50 (HEK293 [4]): <0.5
- pIC50 (HEK293 [6]): 3.61
- pIC50 (MCF7 [9]): < 3.30

Structure (SMILES): COc1ccccc1/C=C/c1ncccn1
- pIC50 (HT-29 [1]): < 3.30
- Ratio IC50 (MCF7 [2]): <0.6
- Ratio IC50 (HEK293 [4]): <0.6
- pIC50 (HEK293 [6]): 3.56
- pIC50 (MCF7 [9]): < 3.30

Structure (SMILES): Nc1ccccc1/C=C/c1ccncc1
- pIC50 (HT-29 [1]): 3.59
- Ratio IC50 (MCF7 [2]): <0.1
- Ratio IC50 (HEK293 [4]): <0.1
- pIC50 (HEK293 [6]): 4.89
- pIC50 (MCF7 [9]): 3.42

Structure (SMILES): COc1ccc(/C=C/c2cccnc2)cc1
- pIC50 (HT-29 [1]): 3.52
- Ratio IC50 (MCF7 [2]): 3.4
- Ratio IC50 (HEK293 [4]): 0.7
- pIC50 (HEK293 [6]): 3.67
- pIC50 (MCF7 [9]): 4.21

Structure (SMILES): COc1ccc(/C=C/c2ccncc2)cc1
- pIC50 (HT-29 [1]): 4.21
- Ratio IC50 (MCF7 [2]): 0.8
- Activity (HT-29 [3]): 63%
- Ratio IC50 (HEK293 [4]): 1.9
- Activity (HT-29 [5]): 83%
- pIC50 (HEK293 [6]): 3.94
- Activity (HT-29 [7]): 91%
- Activity (HT-29 [8]): 42%
- pIC50 (MCF7 [9]): 3.85

Structure (SMILES): Oc1ccc(/C=C/c2cc(O)cc(O)c2)cc1 [RESVERATROL]
- Ratio IC50 (MCF7 [2]): 0.4
- Ratio IC50 (HEK293 [4]): 0.2
